Data: PMC11532403 (Signal Transduction and Targeted Therapy, 2024)
Several values for one entry are separate records, joined by “and”; a condition that tells them apart may be missing. Equal entries are not always repeated.

Tested on: RET-altered solid tumors
Test: Phase 1 trial: anti-tumor efficacy (RECIST 1.1)
Format: in vivo, human
Details: for PFS Follow-up (m) / PFS: Type of event: individual patients; for Best overall response: Partial response / Best overall response: Progressive disease / Best overall response: Stable disease / DCR, % (95% CI) / Median DoR, months (95% CI) / Median PFS, months (95% CI) / Median TTR, months (95% CI) / ORR, % (95% CI): patients with detectable RET variations
Description: Radiologic tumor assessments were conducted by computed tomography (CT) or magnetic resonance imaging (MRI) of brain, chest, abdomen, and pelvis at baseline, 4 weeks for the first tumor assessment, then every 8 weeks (± 7 days) for 1 year, and every 12 weeks (± 7 days) thereafter. MTC patients were longitudinally monitored for serum calcitonin and carcinoembryonic antigen (CEA) levels.

[1] = RP2D, PTC, treatment-naïve (n = 1)
[2] = Treatment-naïve, 40 mg BID (n = 1)
[3] = Treatment-naïve, 160 mg BID (n = 37)
[4] = Treatment-naïve, 200 mg BID (n = 2)
[5] = Treatment-naïve, all doses (n = 40)
[6] = baseline ctDNA detectable RET alterations (n = 61)
[7] = baseline ctDNA undetectable RET alterations (n = 53)
[8] = ctDNA analysis, all patients (n = 114)

With COc1ccc(CN2C3CC2CN(c2ccc(-c4cc(N5CC(C)(O)C5)cn5ncc(C#N)c45)cn2)C3)cn1 [SY-5007, 6-(3-hydroxy-3-methylazetidin-1-yl)-4-(6-(6-((6-methoxypyridin-3-yl)methyl)-3,6-diazabicyclo[3.1.1]heptan-3-yl)pyridin-3-yl)pyrazolo[1,5-a]pyridine-3-carbonitrile] the “ORR (95% CI)” value [1] was 0 (0.0-97.5) %, the Partial response [1] was 0 (0.0) n (%) and the Progressive disease [1] was 0 (0.0) n (%). The Stable disease [1] was 1 (100.0) n (%), the “Median PFS (95% CI)” value [2] was 1.67 (NE-NE) months and the “ORR (95% CI)” value [2] was 0 (0.0–97.5) %. The Partial response [2] was 0 (0.0) n (%), the Progressive disease [2] was 0 (0.0) n (%) and the Stable disease [2] was 1 (100.0) n (%). The “DCR (95% CI)” value (Treatment-naïve, 40 mg BID (n = 1), 40 mg twice daily) was 100.0 (2.5–100.0) %, the “DCR (95% CI)” value [3] was 94.6 (81.8–99.3) % and the “Median DoR (95% CI)” value [3] was 14.5 (9.26-NE) months. For the same molecule, the “Median PFS (95% CI)” value [3] was 15.5 (9.23-NE) months, the “Median TTR (95% CI)” value [3] was 2.75 (0.98–2.89) months and the “ORR (95% CI)” value [3] was 70.3 (53.0–84.1) %. For the same molecule, the Partial response [3] was 26 (70.3) n (%), the Progressive disease [3] was 2 (5.4) n (%) and the Stable disease [3] was 9 (24.3) n (%). The “DCR (95% CI)” value [4] was 100.0 (15.8–100.0) %, the “Median DoR (95% CI)” value [4] was 5.32 (5.06-NE) months and the “Median PFS (95% CI)” value [4] was 6.22 (5.98-NE) months. The “Median TTR (95% CI)” value [4] was 0.93 (0.91-NE) months, the “ORR (95% CI)” value [4] was 100.0 (15.8–100.0) % and the Partial response [4] was 2 (100.0) n (%). For the same molecule, the Progressive disease [4] was 0 (0.0) n (%), the Stable disease [4] was 0 (0.0) n (%) and the “DCR (95% CI)” value [5] was 95.0 (83.1–99.4) %. For the same molecule, the “Median DoR (95% CI)” value [5] was 14.5 (6.47–NE) months, the “Median PFS (95% CI)” value [5] was 15.5 (9.23–NE) months and the “Median TTR (95% CI)” value [5] was 2.75 (0.95–2.89) months. For the same molecule, the “ORR (95% CI)” value [5] was 70.0 (53.5–83.4) %, the Partial response [5] was 28 (70.0) n (%) and the Progressive disease [5] was 2 (5.0) n (%). For the same molecule, the Stable disease [5] was 10 (25.0) n (%), the “Estimated 6-month PFS rate” value (all patients) was 86.1% and the “Estimated 12-month PFS rate” value (all patients) was 68.9%. For the same molecule, the “Patients with progression events or death” value (all patients in phase 1) was 29 (23.8%) n (%), the “DCR (95% CI)” value [6] was 96.7 (88.7-99.6) % and the “Median DoR (95% CI)” value [6] was 13.0 (9.23-19.9) months. The “Median PFS (95% CI)” value [6] was 13.8 (10.0-15.5) months, the “Median TTR (95% CI)” value [6] was 2.79 (1.01-6.73) months and the “ORR (95% CI)” value [6] was 57.4 (44.1-70.0) %. For the same molecule, the Partial response [6] was 35 (57.4) n (%), the Progressive disease [6] was 2 (3.3) n (%) and the Stable disease [6] was 24 (39.3) n (%). For the same molecule, the “DCR (95% CI)” value [7] was 94.3 (84.3-98.8) %, the “Median TTR (95% CI)” value [7] was 3.15 (2.75-6.30) months and the “ORR (95% CI)” value [7] was 60.4 (46.0-73.5) %. For the same molecule, the Partial response [7] was 32 (60.4) n (%), the Progressive disease [7] was 3 (5.7) n (%) and the Stable disease [7] was 18 (34.0) n (%). For the same molecule, the “DCR (95% CI)” value [8] was 95.6 (90.1-98.6) %, the “Median DoR (95% CI)” value [8] was 19.9 (12.8-NE) months and the “Median PFS (95% CI)” value [8] was 21.1 (13.8-NE) months. For the same molecule, the “Median TTR (95% CI)” value [8] was 2.79 (2.75-4.66) months, the “ORR (95% CI)” value [8] was 58.8 (49.2-67.9) % and the Partial response [8] was 67 (58.8) n (%). The Progressive disease [8] was 5 (4.4) n (%), the Stable disease [8] was 42 (36.8) n (%) and the ORR (ctDNA-detectable KIF5B-RET (27/46)) was 58.7%. The ORR (ctDNA-detectable RET mutations (3/9)) was 33.3%, the ORR (ctDNA-detectable other RET fusions (5/7)) was 71.4% and the “Median PFS” value (detectable RET, concomitant TP53 mutation) was 10.1 months. For the same molecule, the ORR (detectable RET, concomitant TP53 mutation (11/22)) was 50.0%, the “Median PFS” value (detectable RET, without TP53 mutation) was 15.4 months and the ORR (detectable RET, without TP53 mutation (24/39)) was 61.5%. The ORR (dose-escalation phase (9/17)) was 52.9%, the DCR (dose-escalation phase (16/17)) was 94.1% and the ORR (dose-expansion phase (58/99)) was 58.6%. The DCR (dose-expansion phase (95/99)) was 96.0%, the “1-year DoR rate” value (in vivo) was 74.1% and the “PFS Follow-up (m)” value (GC, 160mg BID) was 1.02 m. For the same molecule, the “PFS: Type of event” value (GC, 160mg BID) was “Censoring”, the “PFS Follow-up (m)” value (MTC, 160mg BID) was 5.75 m and 0.99 m and 2.76 m and 2.66 m and 6.41 m and 4.60 m and 0.85 m and 0.92 m and 14.72 m and 6.44 m and 11.96 m and 6.51 m and 13.90 m and 8.41 m and 4.57 m and 8.51 m and 6.60 m and 2.86 m and 8.38 m and the “PFS: Type of event” value (MTC, 160mg BID) was “Censoring”. The “PFS Follow-up (m)” value (NSCLC, 20mg BID) was 27.14 m, the “PFS Follow-up (m)” value (NSCLC, 20mg QD) was 4.83 m and the “PFS: Type of event” value (NSCLC, 20mg QD) was “Censoring”. For the same molecule, the “PFS Follow-up (m)” value (NSCLC, 40mg BID) was 25.07 m and 10.29 m and 1.68 m, the “PFS: Type of event” value (NSCLC, 40mg BID) was “Censoring” and the “PFS Follow-up (m)” value (NSCLC, 80mg BID) was 23.30 m and 6.64 m and 23.23 m. The “PFS: Type of event” value (NSCLC, 80mg BID) was “Censoring”, the “PFS Follow-up (m)” value (NSCLC, 120mg BID) was 21.39 m and 21.42 m and 21.13 m and the “PFS: Type of event” value (NSCLC, 120mg BID) was “Censoring”. The “PFS Follow-up (m)” value (NSCLC, 200mg BID) was 11.99 m and 11.96 m and 5.98 m and 5.75 m and 17.74 m and 3.15 m and 6.47 m and 12.16 m and 0.89 m, the “PFS: Type of event” value (NSCLC, 200mg BID) was “Censoring” and the “PFS Follow-up (m)” value (PTC, 160mg BID) was 8.35 m and 2.79 m and 8.38 m and 8.48 m and 6.67 m and 2.89 m and 2.92 m. For the same molecule, the ORR (non-clearance or unknown RET alterations at Cycle 1 Day 28 (16/42)) was 38.1%, the “Best overall response: Partial response” value (TP53 mutant, n=22) was 11 (50.0) and the “Best overall response: Progressive disease” value (TP53 mutant, n=22) was 0 (0.0). The “Best overall response: Stable disease” value (TP53 mutant, n=22) was 11 (50.0), the “DCR, % (95% CI)” value (TP53 mutant, n=22) was 100.0 (84.6-100.0) % and the “Median DoR, months (95% CI)” value (TP53 mutant, n=22) was 13.0 (2.82-NE) months. The “Median PFS, months (95% CI)” value (TP53 mutant, n=22) was 10.1 (6.21-NE) months, the “Median TTR, months (95% CI)” value (TP53 mutant, n=22) was 2.89 (0.95-NE) months and the “ORR, % (95% CI)” value (TP53 mutant, n=22) was 50.0 (28.2-71.8) %. The “Best overall response: Partial response” value (TP53 wild-type, n=39) was 24 (61.5), the “Best overall response: Progressive disease” value (TP53 wild-type, n=39) was 2 (5.1) and the “Best overall response: Stable disease” value (TP53 wild-type, n=39) was 13 (33.3). For the same molecule, the “DCR, % (95% CI)” value (TP53 wild-type, n=39) was 94.9 (82.7-99.4) %, the “Median DoR, months (95% CI)” value (TP53 wild-type, n=39) was 19.9 (6.47-NE) months and the “Median PFS, months (95% CI)” value (TP53 wild-type, n=39) was 15.4 (9.23-NE) months. For the same molecule, the “Median TTR, months (95% CI)” value (TP53 wild-type, n=39) was 2.79 (0.98-6.73) months, the “ORR, % (95% CI)” value (TP53 wild-type, n=39) was 61.5 (44.6-76.6) % and the “Best overall response: Partial response” value (all patients, n=61) was 35 (57.4). For the same molecule, the “Best overall response: Progressive disease” value (all patients, n=61) was 2 (3.3), the “Best overall response: Stable disease” value (all patients, n=61) was 24 (39.3) and the “DCR, % (95% CI)” value (all patients, n=61) was 96.7 (88.7-99.6) %. The “Median DoR, months (95% CI)” value (all patients, n=61) was 13.0 (9.23-19.9) months, the “Median PFS, months (95% CI)” value (all patients, n=61) was 13.8 (10.0-15.5) months and the “Median TTR, months (95% CI)” value (all patients, n=61) was 2.79 (1.01-6.73) months. For the same molecule, the “ORR, % (95% CI)” value (all patients, n=61) was 57.4 (44.1-70.0) %, the ORR (patients with rapid ctDNA clearance of RET alteration) was 100% and the “Median TTR” value (patients with rapid ctDNA decline/clearance of RET alteration) was 0.91 months.
